Assay results as given in ChEMBL document CHEMBL2016493, “Design, synthesis, synergistic antimicrobial activity and cytotoxicity of 4-aryl substituted 3,4-dihydropyrimidinones of curcumin” (Bioorg Med Chem Lett, 2012).
Activity calls are given as the source filed them. The rule behind the calls is not given here.

Key:
[1] = tested on: Burkholderia pseudomallei; assay: Antibacterial activity against Burkholderia pseudomallei NTCC 10274 at 20 uM/ml after 24 hrs by kirby-bauer method; format: functional; settings: for zone of inhibition at 20 µM: NTCC 10274, 24 h, read-out: IZ
Aspergillus flavus [2] = assay: Antifungal activity against Aspergillus flavus MTCC 1021 at 160 uM/ml after 48 hrs by paper disc diffusion method; format: functional
QG-56 = assay: Cytotoxicity against human QG56 cells after 48 hrs by MTT assay; format: functional, cell-based
Aspergillus flavus [3] = assay: Antifungal activity against Aspergillus flavus MTCC 1021 at 20 uM/ml after 48 hrs by paper disc diffusion method; format: functional
Pseudomonas aeruginosa [4] = assay: Antibacterial activity against Pseudomonas aeruginosa ATCC 15499 at 160 uM/ml after 24 hrs by kirby-bauer method; format: functional; settings: for zone of inhibition at 160 µM: ATCC 15499, 24 h, read-out: IZ
Escherichia coli [5] = assay: Antibacterial activity against Escherichia coli ATCC 35218 at 20 uM/ml after 24 hrs by kirby-bauer method; format: functional; settings: for zone of inhibition at 20 µM: ATCC 35218, 24 h, read-out: IZ
[6] = tested on: Burkholderia pseudomallei; assay: Antibacterial activity against Burkholderia pseudomallei NTCC 10274 at 80 uM/ml after 24 hrs by kirby-bauer method; format: functional; settings: NTCC 10274, 24 h, read-out: IZ
Salmonella typhimurium [7] = assay: Antibacterial activity against Salmonella typhimurium ATCC 23564 at 160 uM/ml after 24 hrs by kirby-bauer method; format: functional; settings: for inhibition zone (IZ): Salmonella enterica subsp. enterica serovar Typhimurium; for zone of inhibition at 160 µM: Salmonella enterica, ATCC 23564, 24 h, read-out: IZ
Trichoderma viride [8] = assay: Antifungal activity against Trichoderma viride MTCC 1107 at 160 uM/ml after 48 hrs by paper disc diffusion method; format: functional; settings: MTCC 1107, 48 h, read-out: IZ
Escherichia coli [9] = assay: Antibacterial activity against Escherichia coli ATCC 35218 at 40 uM/ml after 24 hrs by kirby-bauer method; format: functional; settings: for zone of inhibition at 40 µM: ATCC 35218, 24 h, read-out: IZ
Escherichia coli [10] = assay: Antibacterial activity against Escherichia coli ATCC 35218 at 80 uM/ml after 24 hrs by kirby-bauer method; format: functional; settings: ATCC 35218, 24 h, read-out: IZ
Curvularia lunata [11] = assay: Antifungal activity against Curvularia lunata MTCC 581 at 80 uM/ml after 48 hrs by paper disc diffusion method; format: functional; settings: MTCC 581, 48 h, read-out: IZ
Aspergillus niger [12] = assay: Antifungal activity against Aspergillus niger MTCC 1108 at 40 uM/ml after 48 hrs by paper disc diffusion method; format: functional
[13] = tested on: Burkholderia pseudomallei; assay: Antibacterial activity against Burkholderia pseudomallei NTCC 10274 at 40 uM/ml after 24 hrs by kirby-bauer method; format: functional; settings: for zone of inhibition at 40 µM: NTCC 10274, 24 h, read-out: IZ
Aspergillus flavus [14] = assay: Antifungal activity against Aspergillus flavus MTCC 1021 at 80 uM/ml after 48 hrs by paper disc diffusion method; format: functional
Aspergillus niger [15] = assay: Antifungal activity against Aspergillus niger MTCC 1108 at 20 uM/ml after 48 hrs by paper disc diffusion method; format: functional
[16] = tested on: Burkholderia pseudomallei; assay: Antibacterial activity against Burkholderia pseudomallei NTCC 10274 at 160 uM/ml after 24 hrs by kirby-bauer method; format: functional; settings: NTCC 10274, 24 h, read-out: IZ
Pseudomonas aeruginosa [17] = assay: Antibacterial activity against Pseudomonas aeruginosa ATCC 15499 at 20 uM/ml after 24 hrs by kirby-bauer method; format: functional; settings: for zone of inhibition at 20 µM: ATCC 15499, 24 h, read-out: IZ
Aspergillus flavus [18] = assay: Antifungal activity against Aspergillus flavus MTCC 1021 at 40 uM/ml after 48 hrs by paper disc diffusion method; format: functional
Escherichia coli [19] = assay: Antibacterial activity against Escherichia coli ATCC 35218 at 160 uM/ml after 24 hrs by kirby-bauer method; format: functional; settings: ATCC 35218, 24 h, read-out: IZ
Aspergillus niger [20] = assay: Antifungal activity against Aspergillus niger MTCC 1108 at 160 uM/ml after 48 hrs by paper disc diffusion method; format: functional; settings: for zone of inhibition at 160 µM: MTCC 1108, 48 h, read-out: IZ
Trichoderma viride [21] = assay: Antifungal activity against Trichoderma viride MTCC 1107 at 40 uM/ml after 48 hrs by paper disc diffusion method; format: functional; settings: for zone of inhibition: MTCC 1107, 48 h, read-out: IZ
Trichoderma viride [22] = assay: Antifungal activity against Trichoderma viride MTCC 1107 at 80 uM/ml after 48 hrs by paper disc diffusion method; format: functional; settings: MTCC 1107, 48 h, read-out: IZ
Pseudomonas aeruginosa [23] = assay: Antibacterial activity against Pseudomonas aeruginosa ATCC 15499 at 40 uM/ml after 24 hrs by kirby-bauer method; format: functional; settings: for zone of inhibition at 40 µM: ATCC 15499, 24 h, read-out: IZ
Aspergillus niger [24] = assay: Antifungal activity against Aspergillus niger MTCC 1108 at 80 uM/ml after 48 hrs by paper disc diffusion method; format: functional; settings: MTCC 1108, 48 h, read-out: IZ
Curvularia lunata [25] = assay: Antifungal activity against Curvularia lunata MTCC 581 at 40 uM/ml after 48 hrs by paper disc diffusion method; format: functional; settings: MTCC 581, 48 h, read-out: IZ
Curvularia lunata [26] = assay: Antifungal activity against Curvularia lunata MTCC 581 at 160 uM/ml after 48 hrs by paper disc diffusion method; format: functional; settings: MTCC 581, 48 h, read-out: IZ
Trichoderma viride [27] = assay: Antifungal activity against Trichoderma viride MTCC 1107 at 20 uM/ml after 48 hrs by paper disc diffusion method; format: functional; settings: for zone of inhibition at 20 µM: MTCC 1107, 48 h, read-out: IZ
Staphylococcus aureus = assay: Antibacterial activity against Staphylococcus aureus ATCC 11632 at 160 uM/ml after 24 hrs by kirby-bauer method; format: functional
Curvularia lunata [28] = assay: Antifungal activity against Curvularia lunata MTCC 581 at 20 uM/ml after 48 hrs by paper disc diffusion method; format: functional; settings: MTCC 581, 48 h, read-out: IZ
Pseudomonas aeruginosa [29] = assay: Antibacterial activity against Pseudomonas aeruginosa ATCC 15499 at 80 uM/ml after 24 hrs by kirby-bauer method; format: functional; settings: for zone of inhibition at 80 µM: ATCC 15499, 24 h, read-out: IZ
Salmonella typhimurium [30] = assay: Antibacterial activity against Salmonella typhimurium ATCC 23564 at 40 uM/ml after 24 hrs by kirby-bauer method; format: functional
Salmonella typhimurium [31] = assay: Antibacterial activity against Salmonella typhimurium ATCC 23564 at 20 uM/ml after 24 hrs by kirby-bauer method; format: functional
Salmonella typhimurium [32] = assay: Antibacterial activity against Salmonella typhimurium ATCC 23564 at 80 uM/ml after 24 hrs by kirby-bauer method; format: functional, Salmonella enterica subsp. enterica serovar Typhimurium; settings: Salmonella enterica, ATCC 23564, 24 h; read-out: IZ
[33] = Salmonella enterica subsp. enterica serovar Typhimurium
[34] = Salmonella enterica, ATCC 23564, 24 h, read-out: IZ

SMILES | IC50 (QG-56) [uM/ml] | zone of inhibition at 160 µM (Pseudomonas aeruginosa [4]) [mm] | zone of inhibition at 80 µM [6] [mm] | zone of inhibition at 160 µM (Trichoderma viride [8]) [mm] | zone of inhibition at 80 µM (Escherichia coli [10]) [mm] | zone of inhibition at 80 µM (Curvularia lunata [11]) [mm] | zone of inhibition at 40 µM [13] [mm] | IC50 (HepG2) [uM/ml] | inhibition zone (IZ) (Aspergillus niger [15]) | zone of inhibition at 160 µM [16] [mm] | IC50 (HCT-116) [uM/ml] | zone of inhibition at 160 µM (Escherichia coli [19]) [mm] | zone of inhibition at 160 µM (Aspergillus niger [20]) [mm] | zone of inhibition at 80 µM (Trichoderma viride [22]) [mm] | zone of inhibition at 80 µM (Aspergillus niger [24]) [mm] | zone of inhibition at 40 µM (Curvularia lunata [25]) [mm] | zone of inhibition at 160 µM (Curvularia lunata [26]) [mm] | inhibition zone (IZ) (Staphylococcus aureus) | zone of inhibition at 20 µM (Curvularia lunata [28]) [mm] | inhibition zone (IZ) (Aspergillus flavus [2]) | also measured
COc1cc(/C=C/C(=O)C2=C(/C=C/c3ccc(O)c(OC)c3)NC(=O)NC2c2ccccc2O)ccc1O (stereo unspecified) | 100 | 24 | 13 | 11 | 19 | 21 | 11 | 100 | inactive | 19 | 100 | 22 | 13 | 9 | 11 | 20 | 23 | inactive | 17 |  | inhibition zone (IZ) [1]: inactive; zone of inhibition at 160 µM (Aspergillus flavus [2]; MTCC 1021, 48 h, read-out: IZ): 9 mm; inhibition zone (IZ) (Aspergillus flavus [3]): inactive; zone of inhibition at 20 µM (Escherichia coli [5]): 15 mm; inhibition zone (IZ) (Salmonella typhimurium [7]): inactive; zone of inhibition at 40 µM (Escherichia coli [9]): 18 mm; zone of inhibition at 40 µM (Aspergillus niger [12]; MTCC 1108, 48 h, read-out: IZ): 9 mm; inhibition zone (IZ) (Aspergillus flavus [14]): inactive; zone of inhibition at 20 µM (Pseudomonas aeruginosa [17]): 18 mm; inhibition zone (IZ) (Aspergillus flavus [18]): inactive; inhibition zone (IZ) (Trichoderma viride [21]): inactive; zone of inhibition at 40 µM (Pseudomonas aeruginosa [23]): 19 mm; inhibition zone (IZ) (Trichoderma viride [27]): inactive; zone of inhibition at 80 µM (Pseudomonas aeruginosa [29]): 21 mm
COc1ccc(C2NC(=O)NC(/C=C/c3ccc(O)c(OC)c3)=C2C(=O)/C=C/c2ccc(O)c(OC)c2)cc1 (stereo unspecified) | 50 | 23 | 19 | 19 | 9 | 16 | 15 | 50 | inactive | 23 | 100 | 12 | 11 | 17 | 9 | 14 | 17 | inactive | 11 | inactive | zone of inhibition at 20 µM [1]: 11 mm; inhibition zone (IZ) (Escherichia coli [5]): inactive; inhibition zone (IZ) (Salmonella typhimurium [7]): inactive; inhibition zone (IZ) (Escherichia coli [9]): inactive; inhibition zone (IZ) (Aspergillus niger [12]): inactive; zone of inhibition at 20 µM (Pseudomonas aeruginosa [17]): 13 mm; zone of inhibition (Trichoderma viride [21]): 16 mm; zone of inhibition at 40 µM (Pseudomonas aeruginosa [23]): 19 mm; zone of inhibition at 20 µM (Trichoderma viride [27]): 14 mm; zone of inhibition at 80 µM (Pseudomonas aeruginosa [29]): 21 mm
COc1cc(/C=C/C(=O)C2=C(/C=C/c3ccc(O)c(OC)c3)NC(=O)NC2c2ccc(C)cc2)ccc1O (stereo unspecified) | 100 | 10 | 9 | 18 | 9 | 18 |  | 50 | inactive | 10 | 50 | 11 | 12 | 16 | 9 | 16 | 22 | inactive | 12 | inactive | inhibition zone (IZ) [1]: inactive; inhibition zone (IZ) (Escherichia coli [5]): inactive; zone of inhibition at 160 µM (Salmonella typhimurium [7]): 11 mm; inhibition zone (IZ) (Salmonella typhimurium [30]; [33]): inactive; inhibition zone (IZ) (Escherichia coli [9]): inactive; inhibition zone (IZ) (Aspergillus niger [12]): inactive; inhibition zone (IZ) [13]: inactive; inhibition zone (IZ) (Salmonella typhimurium [31]; [33]): inactive; inhibition zone (IZ) (Pseudomonas aeruginosa [17]): inactive; zone of inhibition at 80 µM (Salmonella typhimurium [32]): 9 mm; zone of inhibition (Trichoderma viride [21]): 15 mm; inhibition zone (IZ) (Pseudomonas aeruginosa [23]): inactive; zone of inhibition at 20 µM (Trichoderma viride [27]): 12 mm; inhibition zone (IZ) (Pseudomonas aeruginosa [29]): inactive
COc1cc(/C=C/C(=O)C2=C(/C=C/c3ccc(O)c(OC)c3)NC(=O)NC2c2ccc(O)c(OC)c2)ccc1O (stereo unspecified) | 50 |  | 16 | 21 | 17 | 18 | 14 | 25 |  | 16 | 100 | 19 |  | 18 |  | 17 | 21 | inactive | 13 | inactive | zone of inhibition at 20 µM [1]: 10 mm; inhibition zone (IZ) (Pseudomonas aeruginosa [4]): inactive; zone of inhibition at 20 µM (Escherichia coli [5]): 11 mm; zone of inhibition at 160 µM (Salmonella typhimurium [7]): 22 mm; zone of inhibition at 40 µM (Salmonella typhimurium [30]; [34]): 16 mm; zone of inhibition at 40 µM (Escherichia coli [9]): 14 mm; zone of inhibition at 20 µM (Salmonella typhimurium [31]; [34]): 13 mm; inhibition zone (IZ) (Aspergillus niger [20]): inactive; zone of inhibition at 80 µM (Salmonella typhimurium [32]): 19 mm; zone of inhibition (Trichoderma viride [21]): 16 mm; zone of inhibition at 20 µM (Trichoderma viride [27]): 15 mm
COc1cccc2c1C(=O)c1c(O)c3c(c(O)c1C2=O)C[C@@](O)(C(=O)CO)C[C@@H]3O[C@H]1C[C@H](N)[C@H](O)[C@H](C)O1 [DOXORUBICIN] | 2.5 |  |  |  |  |  |  | 2.5 |  |  | 5 |  |  |  |  |  |  |  |  |  | 
